# Reference: patent publication US20240156836A1, “METHODS OF TREATING TE[…]” (priority 2018, published 2024)
# Key:
# [1] = Method: Testosterone undecanoate is metabolized into testosterone. Its degradation in whole blood into testosterone has been studied in conditions typically used in clinical trials.
# Prior to discharge from the clinical facility, the subjects will be instructed to take 396 mg TU by mouth immediately prior to their dinner meal on Day 1, then twice daily on Days 2-6 immediately prior to their breakfast and dinner meals, and on Day 7 in the morning, immediately prior to their breakfast meal.
# Subjects will return to the Clinic on Day 7 in the late afternoon (before dinner) with their study medication. Upon arrival at the clinic, their study drug will be counted to determine compliance during Day 1 through Day 7 post-AM dose. They will then be administered the study drug 396 mg TU by mouth immediately prior to a dinner meal (containing 30 g fat) which will be provided. Subjects will be instructed to consume the dinner in approximately 20 minutes. Subjects will remain in the unit overnight.
# On the 8th day, 5 hrs after their AM meal, blood is collected in plain, EDTA and NaF-EDTA tubes. The plain tubes sit at room temperature (RT). The EDTA and NaF-EDTA tubes are placed on ice.
# Samples will be collected into multiple Plain, EDTA and NaF-EDTA tubes. The Plain tube will be incubated at RT to allow blood clotting, as recommended by Clinical and Laboratory Standards Institute (CLSI 2010). […]
# [2] = Dose titration concordance analysis (C6 vs Cavg) in hypogonadal men treated with oral TU; assay type: in vivo
# Source text: One of the goals of this study was to determine whether the T concentration in blood samples collected into Plain tubes (yielding serum) can be used for making dose titration decisions. In previous studies, dose titration decisions were based on T concentrations in NaF-EDTA plasma.
# The goal of dose-titration in men treated with oral TU is to bring the testosterone Cavg into the eugonadal range. Because titration decisions based on testosterone Cavg are not practical in real world clinical setting, single sample T concentrations can be used as surrogates of Cavg. Concordance analysis estimates how well dose titration based on two different measures (e.g., Cavg v. C6) work in guiding dose titration. […] However, to determine total concordance, effective off-diagonal titration also must be determined. Effective off-diagonal titration can be estimated for the following reasons. […] Second, the titration boundaries (425 to 970 ng/dL) fall within the eugonadal boundaries (300 to 1100 ng/dL), and the eugonadal range is wide (3.5 fold) compared to the largest dose increment (33%) or decrement (25%). This means that the dose increments/decrements employed can allow movement within the eugonadal range (e.g. increasing the dose of someone with a Cavg of 400 ng/dL will raise the Cavg to a maximum of 532 ng/dL [400×1.33]). Similarly, when titration decisions based on C6 are different from those based on Cavg, the outcome will often be a Cavg in the eugonadal range. For example, when a patient's C6 is less than 425 ng/dL (indicating a dose increase is required), but whose Cavg is 600 ng/dL (indicating no titration), the impact of titrating based on C6 is that the Cavg will increase but remain in the eugonadal range. The largest dose increase will result in a 33% increase in exposure which, in this case, will raise the Cavg to 798 ng/dL. Therefore, despite titration based on C6, this patient's Cavg is not likely to rise above the upper boundary of the eugonadal range. Thus, the titration decision based on C6 is effectively concordant with that based on Cavg, since both titration decisions will result in a patient with a Cavg in the eugonadal range. Selected cells in Table 3 indicate a patient's Cavg that would result in effective off-diagonal titration. Therefore, when comparing the effectiveness of dose-titration decisions based on C6 and Cavg, both concordance (on-diagonal agreement between C6 and Cavg) and effective off-diagonal agreement must be considered) [i.e., total concordance (percent of patients treated with oral TU who fall into given concordance boxes) is defined as the sum of on-diagonal and effective off-diagonal concordance (see area in Table 3 defined by heavy line). In the example presented, the C6 value is a serum value derived from a measured NaF-EDTA plasma value and a conversion factor that enables the conversion of NaF-EDTA plasma data to be converted to an equivalent serum data.
# These reflect an on-diagonal concordance of 75% and 63% and an effective off-diagonal titration decision of 24% and 36% for Visit 2 and Visit 4b, respectively. Therefore, dose titration based on C6 can effectively adjust a patient's oral TU dose such that their Cavg is in the eugonadal range.
smiles,measurement,setting,value
"CCCCCCCCCCC(=O)O[C@H]1CC[C@H]2[C@@H]3CCC4=CC(=O)CC[C@]4(C)[C@H]3CC[C@]12C [TU, testosterone undecanoate]",degradation of TU in whole blood into testosterone,[1],degrades extensively to testosterone
same,percent of patients,"[2]; Visit 2, C6 425-970 ng/dL, Cavg 350-800 ng/dL",15.2%
same,percent of patients,"[2]; Visit 2, C6 425-970 ng/dL, Cavg <350 ng/dL",5.4%
same,percent of patients,"[2]; Visit 2, C6 425-970 ng/dL, Cavg >800 ng/dL",2%
same,percent of patients,"[2]; Visit 2, C6 425-970 ng/dL, Total",22.6%
same,percent of patients,"[2]; Visit 2, C6 <425 ng/dL, Cavg 350-800 ng/dL",13.9%
same,percent of patients,"[2]; Visit 2, C6 <425 ng/dL, Cavg <350 ng/dL",59.4%
same,percent of patients,"[2]; Visit 2, C6 <425 ng/dL, Cavg >800 ng/dL",0%
same,percent of patients,"[2]; Visit 2, C6 <425 ng/dL, Total",73.3%
same,percent of patients,"[2]; Visit 2, C6 >970 ng/dL, Cavg 350-800 ng/dL",4.2%
same,percent of patients,"[2]; Visit 2, C6 >970 ng/dL, Cavg <350 ng/dL",0%
same,percent of patients,"[2]; Visit 2, C6 >970 ng/dL, Cavg >800 ng/dL",0.6%
same,percent of patients,"[2]; Visit 2, C6 >970 ng/dL, Total",4.8%
same,percent of patients,"[2]; Visit 2, Total, Cavg 350-800 ng/dL",33.3%
same,percent of patients,"[2]; Visit 2, Total, Cavg <350 ng/dL",64.8%
same,percent of patients,"[2]; Visit 2, Total, Cavg >800 ng/dL",2.6%
same,percent of patients,"[2]; Visit 4b, C6 425-970 ng/dL, Cavg 350-800 ng/dL",25%
same,percent of patients,"[2]; Visit 4b, C6 425-970 ng/dL, Cavg <350 ng/dL",10%
same,percent of patients,"[2]; Visit 4b, C6 425-970 ng/dL, Cavg >800 ng/dL",0.6%
same,percent of patients,"[2]; Visit 4b, C6 425-970 ng/dL, Total",35.6%
same,percent of patients,"[2]; Visit 4b, C6 <425 ng/dL, Cavg 350-800 ng/dL",21.8%
same,percent of patients,"[2]; Visit 4b, C6 <425 ng/dL, Cavg <350 ng/dL",37.5%
same,percent of patients,"[2]; Visit 4b, C6 <425 ng/dL, Cavg >800 ng/dL",0%
same,percent of patients,"[2]; Visit 4b, C6 <425 ng/dL, Total",59.3%
same,percent of patients,"[2]; Visit 4b, C6 >970 ng/dL, Cavg 350-800 ng/dL",4.3%
same,percent of patients,"[2]; Visit 4b, C6 >970 ng/dL, Cavg <350 ng/dL",0%
same,percent of patients,"[2]; Visit 4b, C6 >970 ng/dL, Cavg >800 ng/dL",0.6%
same,percent of patients,"[2]; Visit 4b, C6 >970 ng/dL, Total",4.9%
same,percent of patients,"[2]; Visit 4b, Total, Cavg 350-800 ng/dL",51.1%
same,percent of patients,"[2]; Visit 4b, Total, Cavg <350 ng/dL",47.5%
same,percent of patients,"[2]; Visit 4b, Total, Cavg >800 ng/dL",1.2%
same,testosterone exposure versus dose,[2]; men treated with oral TU,dose proportional
